Entries after “also recorded” stand apart in the source; their conditions may differ. Read-outs that look alike come from different tables or passages of the source.
Experiments:
CYP1A2 = biological target: T1, CYP1A2 (Homo sapiens, UniProt P05177); assay: CYP inhibition, cocktail of probe substrates in pooled human liver microsomes: phenacetin O-deethylation; format: in vitro ADME; details: for IC50: pooled HLMs, substrate 80 μM
T1 construct: tissue Corning Gentest BD UltraPool HLM 150; host or cells: pooled human liver microsomes
T1 sequence (P05177 1-516): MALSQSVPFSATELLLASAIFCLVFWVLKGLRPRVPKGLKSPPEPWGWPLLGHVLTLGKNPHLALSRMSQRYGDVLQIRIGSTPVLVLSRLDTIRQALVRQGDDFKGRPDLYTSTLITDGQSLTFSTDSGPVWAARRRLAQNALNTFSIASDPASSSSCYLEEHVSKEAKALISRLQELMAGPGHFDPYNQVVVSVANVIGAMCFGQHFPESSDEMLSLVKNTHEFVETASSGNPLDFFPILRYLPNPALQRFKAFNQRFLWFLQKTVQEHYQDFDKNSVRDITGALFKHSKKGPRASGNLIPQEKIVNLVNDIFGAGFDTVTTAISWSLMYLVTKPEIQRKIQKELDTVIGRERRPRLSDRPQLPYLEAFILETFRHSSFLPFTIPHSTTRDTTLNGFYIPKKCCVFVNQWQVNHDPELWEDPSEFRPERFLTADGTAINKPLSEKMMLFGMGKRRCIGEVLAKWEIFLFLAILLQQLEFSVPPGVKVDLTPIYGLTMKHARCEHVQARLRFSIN
Protocol: (§1) All incubations were performed in duplicate, and data are presented as means. Briefly, each reaction was performed with 0.5 mg/mL pooled human liver microsomes in a final incubation volume of 0.1 mL. The incubation medium consisted of 0.1 M potassium phosphate buffer (pH 7.4) containing cocktail of probe substrates and a NADPH-generating system (NGS) of 0.1 M glucose 6-phosphate, 10 mg/mL β-NADPH, and 1.0 U/mL glucose-6-phosphate dehydrogenase. To investigate the IC50 of bakuchicin during CYP1A inhibition, bakuchicin (at final concentrations of 0–25 μM) was incubated without preincubation. In addition, the mixture with bakuchicin was preincubated for 15 min without the probe substrate cocktail in the presence or absence of 1 mM β-NADPH. After the reaction was initiated by adding the NGS for 60 min, incubated samples were terminated by adding 100 μL acetonitrile containing 0.1% formic acid and 2.5 μL of internal standard solution (5 μM reserpine) in methanol. After mixing and centrifuging at 13,000 ×g for 12 min, a 5 μL aliquot was injected onto a C18 column for LC-MS/MS analysis.
(§2) All measurements were performed using LC-MS/MS in multiple reaction monitoring mode. LC-MS/MS was performed using an Accela™ LC system coupled to a TSQ Vantage triple quadrupole mass spectrometer (Thermo Fisher Scientific Inc., USA) equipped with a HESI-II Spray source. Electrospray ionization was performed in positive mode at a spray voltage of 3,500 V (except for the detection of 6-hydroxy chlorzoxazone). Nitrogen was used as a sheath and auxiliary gas at optimum values of 45 and 20 (arbitrary units), respectively. Vaporizer and capillary temperatures were 150 and 300°C, respectively. For LC analysis an Inertsil® ODS-2 (3 μm, 2.1 × 150 mm) column (GL Sciences Inc., Torrance, CA) was used. The mobile phase consisted of acetonitrile (mobile phase A) and water (mobile phase B), both of which contained 0.1% formic acid, at a flow rate of 0.22 mL/min at 30°C.
(§3) All incubations were performed in duplicate, and data are presented as means. IC50 values (the concentration of inhibitor causing a 50% inhibition in enzyme activity) were obtained using percent activity versus log[I] concentration plots. Kinetic parameters were estimated by curve fitting using SigmaPlot (version 12.0, Systat Software, Inc.).

[1] = biological target: T2, human recombinant cDNA-expressed CYP1A2 (Homo sapiens, UniProt P05177); assay: Inhibition of phenacetin O-deethylation by human recombinant cDNA-expressed CYP1A2; format: biochemical
T2 construct: purchased Corning Gentest (Woburn, MA)
T2 sequence (P05177 1-516): T1 sequence (P05177 1-516)
Protocol: To confirm the selective inhibition of CYP1A by bakuchicin, 10 pmol of human recombinant cDNA-expressed CYP1A1 and CYP1A2 was incubated with bakuchicin at 0.1–50 μM and NGS for 60 min at 37°C after the addition of 80 μM phenacetin as a selective CYP1A substrate. Those were terminated by adding 100 μL acetonitrile containing 0.1% formic acid and 2.5 μL of internal standard solution (5 μM reserpine) in methanol. After mixing and centrifuging at 13,000 ×g for 12 min, a 5 μL aliquot was injected onto a C18 column for LC-MS/MS analysis. CYP1A1 and CYP1A2 activities were determined by phenacetin O-deethylation. The inhibition patterns of bakuchicin on CYP1A in human recombinant cDNA-expressed CYP1A1 and CYP1A2 were confirmed by Michaelis-Menten and secondary plot.
as §2, §3

CYP3A4 = biological target: T3, CYP3A4 (Homo sapiens, UniProt P08684); assay: CYP inhibition, cocktail of probe substrates in pooled human liver microsomes: midazolam 1'-hydroxylation; format: in vitro ADME; details: pooled HLMs, substrate 2.5 μM
T3 construct: each reaction was performed with 0.5 mg/mL pooled human liver microsomes; tissue Corning Gentest BD UltraPool HLM 150; host or cells: pooled human liver microsomes

CYP2E1 = biological target: T4, CYP2E1 (Homo sapiens, UniProt P05181); assay: CYP inhibition, cocktail of probe substrates in pooled human liver microsomes: chlorzoxazone 6-hydroxylation; format: in vitro ADME; details: pooled HLMs, substrate 50 μM
T4 construct: tissue Corning Gentest BD UltraPool HLM 150; host or cells: pooled human liver microsomes
Protocol: as §1, §2
All incubations were performed in duplicate, and data are presented as means. […]

[2] = 15 min preincubation with NADPH, read-out: IC50 With preincubation with NADPH
[3] = 15 min preincubation without NADPH, read-out: IC50 With preincubation Without NADPH
[4] = without preincubation, read-out: IC50 Without preincubation

T4 sequence (P05181 whole entry): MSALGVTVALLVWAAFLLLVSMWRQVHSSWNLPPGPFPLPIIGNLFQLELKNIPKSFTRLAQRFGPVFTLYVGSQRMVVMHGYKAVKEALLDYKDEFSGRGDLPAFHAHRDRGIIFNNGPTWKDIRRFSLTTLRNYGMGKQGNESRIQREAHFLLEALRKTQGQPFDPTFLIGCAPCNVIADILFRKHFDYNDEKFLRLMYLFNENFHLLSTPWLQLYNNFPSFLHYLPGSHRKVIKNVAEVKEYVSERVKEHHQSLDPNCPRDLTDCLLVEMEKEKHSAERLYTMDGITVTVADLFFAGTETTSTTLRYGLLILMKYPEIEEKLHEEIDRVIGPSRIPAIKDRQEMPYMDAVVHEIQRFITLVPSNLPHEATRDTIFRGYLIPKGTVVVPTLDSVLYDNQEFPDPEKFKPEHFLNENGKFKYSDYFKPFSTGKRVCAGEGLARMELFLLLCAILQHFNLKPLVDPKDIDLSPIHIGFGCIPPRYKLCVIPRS
T3 sequence (P08684 whole entry): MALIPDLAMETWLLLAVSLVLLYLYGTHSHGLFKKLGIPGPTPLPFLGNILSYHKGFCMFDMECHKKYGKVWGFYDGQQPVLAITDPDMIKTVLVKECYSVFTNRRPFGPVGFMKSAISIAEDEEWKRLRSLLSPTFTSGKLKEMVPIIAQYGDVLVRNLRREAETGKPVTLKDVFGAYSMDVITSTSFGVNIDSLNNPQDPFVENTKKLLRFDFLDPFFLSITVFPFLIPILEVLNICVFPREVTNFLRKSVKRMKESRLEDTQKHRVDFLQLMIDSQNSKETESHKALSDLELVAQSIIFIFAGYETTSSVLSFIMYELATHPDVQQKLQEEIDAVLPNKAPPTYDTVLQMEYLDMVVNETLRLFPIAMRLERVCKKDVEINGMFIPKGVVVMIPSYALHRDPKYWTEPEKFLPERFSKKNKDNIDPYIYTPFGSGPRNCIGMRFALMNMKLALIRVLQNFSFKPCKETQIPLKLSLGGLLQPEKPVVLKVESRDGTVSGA

time dependence of CYP1A inhibition (CYP1A2; HLMs, preincubation time 0-20 min at 37°C): not time-dependent inhibition | IC50 (CYP1A2; [2]): 0.22 µM | IC50 (CYP1A2; [3]): 0.22 µM | IC50 (CYP1A2; [4]): 0.43 µM | IC50 ([1]; recombinant CYP1A2, 80 μM phenacetin, 60 min, read-out: IC50, CYP1A2-catalyzed phenacetin O-deethylase activity): 1.4 µM | Ki ([1]; recombinant CYP1A2, phenacetin 20, 40, 80 μM, 60 min, read-out: Ki on CYP1A2 (secondary plot)): 0.32 µM | Ki on CYP1A2 relative to Ki on CYP1A1 ([1]; recombinant enzymes): 3 fold | IC50 for CYP1A2 relative to CYP1A1 ([1]; recombinant enzymes, CYP1A2 IC50 higher than CYP1A1 IC50): 7 fold | IC50 (CYP3A4; [2]): > 100 µM | IC50 (CYP3A4; [3]): > 100 µM | IC50 (CYP3A4; [4]): > 100 µM | IC50 (CYP2E1; [2]): > 100 µM | IC50 (CYP2E1; [3]): > 100 µM | IC50 (CYP2E1; [4]): > 100 µM
SMILES: O=c1ccc2c(ccc3ccoc32)o1 [Bakuchicin]
inhibition mode on CYP1A2 ([1]; recombinant CYP1A2, Lineweaver-Burk plot): competitive inhibitor; also recorded: competitive inhibition
